# Source: patent EP2746402A1, “Method of prognosis of Alzheimers disease and substrates for use therein” (Academisch Medisch Centrum, priority 2013, dated 2014)
# Positions of bridges follow the written chain, without caps; N, C: chain ends. Non-standard residues stand in square brackets, D forms with d. Residues, ends and D or L forms follow the SMILES beside them. *: point of attachment. Ileψ(thiazoline)Cys = CC[C@H](C)[C@H](N)C1=N[C@H](C(=O)*)CS1; Sta = CC(C)C[C@H](N)[C@@H](O)CC(=O)O; dOrn = NCCC[C@@H](N)C(=O)O; Isovaleryl = CC(C)CC(=O)*; Cbz = O=C(OCc1ccccc1)*; CH2Cl = ClC*
# Experiments:
# Type in all cases: biochemical
# [1] = test system: HEK293 cytosolic fractions; test: Quenched Aβ peptide (qAβ) degradation assay in HEK293 cytosolic fractions, with and without protease inhibitors; conditions: protease inhibitor added to HEK293 cytosolic fractions prior to qAβ, 30 minutes at 4 °C; inhibitor concentrations 20-200 µM; fluorescence at 37°C
# Source text: We developed a sensitive Aβ degradation assay by generating a quenched Aβ40 peptide containing a small fluorescein group and a quenching dabcyl group (Reits et al., 2004) flanking the KLVFF sequence present in the middle of the Aβ peptides that is a critical region for aggregation (Fig. 1A) (Tjernberg et al., 1996). A quenched Aβ42 peptide was difficult to synthesize as the peptide was too aggregation-prone during synthesis, preventing efficient labeling with the small fluorophore. […] The qAβ peptides were added to cytoplasmic fractions of mildly lysed HEK293 cells, thereby preventing contamination with extracellular membrane-bound or lysosomal proteases, resulting in an increase in fluorescent signal (Fig. 1B). To identify which proteases play a role in this Aβ clearance machinery, different protease inhibitors were added to the cytosolic fractions prior to adding the qAβ. […]
# HEK cells were lysed in 25 µM digitonin (Sigma) in KMH buffer (110 mM KAc, 2 mM MgAc and 20 mM Hepes-KOH, pH 7.2). Human and mouse brain hippocampal tissue was lysed in ± 400 µl (adjusted to the amount of tissue) of homogenization buffer (50 mM Tris/HCl pH 7.5, 250 mM sucrose, 5 mM MgCl2 and freshly added 2 mM ATP, 1 mM DTT and 0.025 % digitonin (Sigma)). Tissue was homogenized on ice in homogenization buffer using a homogenizer. Cell lysates were incubated for 30 minutes on ice and centrifuged for 15 minutes at 14.000 rpm at 4 °C.
# HFIP-treated aliquots of Aβ40 were resuspended in DMSO followed by sonication for 10 minutes, immediately before use. 75 ng (340 nM) of quenched Aβ40 was added to 5 µg protein from the cell lysates in KMH buffer (110 mM KAc, 2 mM MgAc and 20 mM Hepes-KOH, pH 7.2) to a total volume of 50 µl. Protease inhibitors (100 µM 1,10-phenanthroline, 200 µM bacitracin, 100 µM E64, 20 µM MG-132, 100 µM puromycin, 100 µM PMSF, 200 µM pepstatin A (all Sigma), 100 µM AAF-CMK, 100 µM amastatin or 50 µM bestatin (Enzo lifesciences AG), 50 µM PAQ-22 (Wako Chemicals), 100 µM Cpp-AAF-pNa (InstruChem), 50 µM PAQ-22 (SopaChem) and 100 µM butabindide (Tocris Bioscience)) were added to the cell lysates and incubated for 30 minutes at 4 °C. Degradation of the peptide was analyzed at 37°C using the FLUOstar OPTIMA (BMG Labtec.).
# SH-SY5Y cell lysates = test: Degradation of the quenched 12-mer peptide in SH-SY5Y cell lysates
# Source text: To proof that shorter variants of the substrates of the invention may also be used as a suitable substrate to measure IDE activity, we analyzed the degradation of a substrate having the amino acid sequence HQKLVFFACDBC, which contains the KLVFF region flanked by a quenched and fluorophore. In addition, we examined the effect of bacitracine, the inhibitor for IDE, on the degradation of this 12-mer peptide (see Figure 5), as well as its ability to aggregate and form oligomers.
# The 12-mer substrate having the amino acid sequence HQKLVFFACDCB (SEQ ID NO:10) containing a fluorophore and quencher was synthesized as described before (Reits et al., 2004), introducing a fluorescein at the cysteine (position 11) and a quenching dabcyl group at the lysine (position 3). The substrate was sonificated immediately before use and added to 5 µg cell lysate. KMH buffer (110 mM KAc, 2 mM MgAc and 20 mM Hepes-KOH, pH 7.2) was added to a total volume of 50 µl. Degradation of the substrate was analyzed at 37°C using the FLUOstar OPTIMA (BMG Labtec.).
# [2] = test system: human hippocampal lysates; test: Quenched Aβ peptide (qAβ) degradation assay in human hippocampal lysates at different Braak stages; conditions: bacitracin added to hippocampal lysates prior to qAβ; all Braak stages
# Method: Since the hippocampus is highly susceptible to Aβ accumulation, we examined whether the ability to degrade Aβ is affected in sporadic (sAD) using human hippocampal tissue of post-mortem brains with varying Braak stages. Included were Braak 0 (control, no AD) and Braak I-VI. When the ability to degrade qAβ was determined for each Braak stage (Fig. 2A, solid bars), a strong decrease in qAβ degradation rate was already observed in Braak stage I (t-test, two-tailed, p=0.03), which further decreased during the progression to Braak stage II (t-test, two-tailed, p=0.01). […] Also oligomerized Aβ was less well degraded with increasing Braak stage (Fig. 2B). AD progression can also be classified by plaque distribution in well defined brain areas giving a particular amyloid score, ranging from O (no plaques) to C. Similar to increasing Braak stages, the rate of qAβ degradation decreased with increasing amyloid score, being significant for hippocampal fractions of brains classified with amyloid score C (t-test, two-tailed, p=0.017) (Fig. 2C). […]
# HFIP-treated aliquots of Aβ40 were resuspended in DMSO followed by sonication for 10 minutes, immediately before use. […] Degradation of the peptide was analyzed at 37°C using the FLUOstar OPTIMA (BMG Labtec.).
compound,measurement,setting,value
C[C@H](N)C(=O)N[C@@H](C)C(=O)N[C@@H](Cc1ccccc1)C(=O)CCl [AAF-CMK] (H-Ala-Ala-Phe-CH2Cl),effect on qAβ degradation,[1],did not show any effect
CC(C)C[C@H](NC(=O)[C@H]1O[C@@H]1C(=O)O)C(=O)NCCCCN=C(N)N [E64],effect on qAβ degradation,[1],did not show any effect
CC(C)C[C@@H](C=O)NC(=O)[C@H](CC(C)C)NC(=O)[C@H](CC(C)C)NC(=O)OCc1ccccc1 [MG132] (Cbz-Leu-Leu-Leu-aldehyde),effect on qAβ degradation,[1],did not show any effect
O=S(=O)(F)Cc1ccccc1 [PMSF],effect on qAβ degradation,[1],did not show any effect
CC(C)C[C@@H](N)[C@H](O)C(=O)N[C@H](C(=O)N[C@H](C(=O)N[C@@H](CC(=O)O)C(=O)O)C(C)C)C(C)C [amasatin],effect on qAβ degradation,[1],did not show any effect
CC[C@H](C)[C@H](N)C1=N[C@H](C(=O)N[C@@H](CC(C)C)C(=O)N[C@H](CCC(=O)O)C(=O)N[C@H](C(=O)N[C@H]2CCCCNC(=O)[C@H](CC(N)=O)NC(=O)[C@@H](CC(=O)O)NC(=O)[C@H](Cc3cnc[nH]3)NC(=O)[C@@H](Cc3ccccc3)NC(=O)[C@H]([C@@H](C)CC)NC(=O)[C@@H](CCCN)NC2=O)[C@@H](C)CC)CS1 [bacitracin] ({Ileψ(thiazoline)Cys}-L[dE]IK[dOrn]I[dF]H[dD]N; lactam 4-C),effect on degradation of the 12-mer peptide,"SH-SY5Y cell lysates; bacitracine added to SH-SY5Y cell lysates, monomeric 12-mer",inhibited
same,effect on qAβ degradation,[1],reduced
same,ability to degrade qAβ,[2],strongly reduced
CC(C)C[C@H](NC(=O)[C@@H](O)[C@H](N)Cc1ccccc1)C(=O)O [bestatin],effect on qAβ degradation,[1],did not show any effect
CCCCNC(=O)[C@@H]1Cc2ccccc2N1C(=O)[C@@H](N)CC [butabindide],effect on qAβ degradation,[1],did not show any effect
CC(C)CC(=O)N[C@H](C(=O)N[C@H](C(=O)N[C@@H](CC(C)C)[C@@H](O)CC(=O)N[C@@H](C)C(=O)N[C@@H](CC(C)C)[C@@H](O)CC(=O)O)C(C)C)C(C)C [pepstatin] (Isovaleryl-VV[Sta]A[Sta]-OH),effect on qAβ degradation,[1],did not show any effect
"c1cnc2c(c1)ccc1cccnc12 [phenantroline, 1,10-phenanthroline]",effect on qAβ degradation,[1],significantly decreased
HQKLVFFACDCB [12-mer peptide],plateau level of fluorescence after aggregation,SH-SY5Y cell lysates; 12-mer peptide incubated at 37°C (3 HR in PBS) before addition to SH-SY5Y cell lysates,lower plateau level
same,degradation of the 12-mer peptide,SH-SY5Y cell lysates; monomeric form added to SH-SY5Y cell lysates,degradation could be observed
